# Results published in PubChem BioAssay AID1963441 (Molecular Pharmacology Branch, DTP, NCI, 2024).
# System: NCI-H1876 complex spheroid growth, % test/control
# Experiment: Anticancer human tumor NCI-H1876 cell line growth inhibition [Asc];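 further: compound exposure lasted 7 days starting three days after seeding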;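 on viability, T/C: 100% = DMSO vehicle control wells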
# Conditions: for IC50: curve of first compound; for viability, T/C: stronger effect = lower value
# Summary of the method: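 Spheroid model: tumor line + HUVEC + hMSC. Single agents and combinations; top conc. at/near clinical Cmax (10 microM if undetermined), half-log dilutions. DMSO stocks at 800-fold test concentration.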
# [1] = second compound 0.0316 µM, first compound 0.0316 µM
# [2] = second compound 0.0316 µM, first compound 0.1 µM
# [3] = second compound 0.0316 µM, first compound 0.316 µM
# [4] = second compound 0.0316 µM, first compound 1 µM
# [5] = second compound 0.0316 µM, first compound 3.16 µM
# [6] = second compound 0.0316 µM, first compound 10 µM
# [7] = second compound 0.1 µM, first compound 0.0316 µM
# [8] = second compound 0.1 µM, first compound 0.1 µM
# [9] = second compound 0.1 µM, first compound 0.316 µM
# [10] = second compound 0.1 µM, first compound 1 µM
# [11] = second compound 0.1 µM, first compound 3.16 µM
# [12] = second compound 0.1 µM, first compound 10 µM
# [13] = second compound 0.316 µM, first compound 0.0316 µM
# [14] = second compound 0.316 µM, first compound 0.1 µM
# [15] = second compound 0.316 µM, first compound 0.316 µM
# [16] = second compound 0.316 µM, first compound 1 µM
# [17] = second compound 0.316 µM, first compound 3.16 µM
# [18] = second compound 0.316 µM, first compound 10 µM
# [19] = second compound 1 µM, first compound 0.0316 µM
# [20] = second compound 1 µM, first compound 0.1 µM
# [21] = second compound 1 µM, first compound 0.316 µM
# [22] = second compound 1 µM, first compound 1 µM
# [23] = second compound 1 µM, first compound 3.16 µM
# [24] = second compound 1 µM, first compound 10 µM
structure (smiles),measurement,setting,value
C=C(F)C(=O)N1CCN(c2nc(OCC3CCCN3C)nc3c2CCN(c2cccc4cccc(Cl)c24)C3)CC1CC#N (centres undefined) + CNC(C)C(=O)NC1CN(S(=O)(=O)c2cccc(S(=O)(=O)N3CCC4CCC(C(=O)NC(c5ccccc5)c5ccccc5)N4C(=O)C(NC(=O)C(C)NC)C3)c2)CCC2CCC(C(=O)NC(c3ccccc3)c3ccccc3)N2C1=O,IC50,second compound 0.00316 µM,5.58 µM
same,IC50,second compound 0.01 µM,5.6 µM
same,IC50,second compound 0.0316 µM,5.59 µM
same,IC50,second compound 0.1 µM,5.66 µM
same,IC50,second compound 0.316 µM,5.73 µM
same,IC50,second compound 1 µM,5.46 µM
same,"viability, T/C","second compound 0.00316 µM, first compound 0.0316 µM",96.9%
same,"viability, T/C","second compound 0.00316 µM, first compound 0.1 µM",97.3%
same,"viability, T/C","second compound 0.00316 µM, first compound 0.316 µM",110%
same,"viability, T/C","second compound 0.00316 µM, first compound 1 µM",89.3%
same,"viability, T/C","second compound 0.00316 µM, first compound 3.16 µM",99%
same,"viability, T/C","second compound 0.00316 µM, first compound 10 µM",0.33%
same,"viability, T/C","second compound 0.01 µM, first compound 0.0316 µM",104%
same,"viability, T/C","second compound 0.01 µM, first compound 0.1 µM",96.2%
same,"viability, T/C","second compound 0.01 µM, first compound 0.316 µM",103%
same,"viability, T/C","second compound 0.01 µM, first compound 1 µM",103%
same,"viability, T/C","second compound 0.01 µM, first compound 3.16 µM",98.4%
same,"viability, T/C","second compound 0.01 µM, first compound 10 µM",1.04%
same,"viability, T/C",[1],106%
same,"viability, T/C",[2],91.5%
same,"viability, T/C",[3],98.2%
same,"viability, T/C",[4],95.2%
same,"viability, T/C",[5],103%
same,"viability, T/C",[6],0.33%
same,"viability, T/C",[7],98.2%
same,"viability, T/C",[8],95.4%
same,"viability, T/C",[9],102%
same,"viability, T/C",[10],115%
same,"viability, T/C",[11],100%
same,"viability, T/C",[12],0.52%
same,"viability, T/C",[13],106%
same,"viability, T/C",[14],98.7%
same,"viability, T/C",[15],107%
same,"viability, T/C",[16],96.3%
same,"viability, T/C",[17],108%
same,"viability, T/C",[18],0.32%
same,"viability, T/C",[19],96.2%
same,"viability, T/C",[20],85.5%
same,"viability, T/C",[21],92.1%
same,"viability, T/C",[22],102%
same,"viability, T/C",[23],97.2%
same,"viability, T/C",[24],0.37%
C=C(F)C(=O)N1CCN(c2nc(OCC3CCCN3C)nc3c2CCN(c2cccc4cccc(Cl)c24)C3)CC1CC#N (centres undefined) + Cc1c(S(C)(=O)=O)c(-c2cc(F)cc(N3CCN(c4ccc(NS(=O)(=O)c5ccc(NC(CCN6CCC(C(=O)OCCCP(=O)(O)O)CC6)CSc6ccccc6)c(S(=O)(=O)C(F)(F)F)c5)cc4)CC3)c2)c(-c2ccc(Cl)cc2)n1C(C)C,IC50,second compound 0.0316 µM,5.7 µM
same,IC50,second compound 0.1 µM,5.38 µM
same,IC50,second compound 0.316 µM,5.65 µM
same,IC50,second compound 1 µM,5.54 µM
same,IC50,second compound 3.16 µM,5.15 µM
same,IC50,second compound 10 µM,5.43 µM
same,"viability, T/C",[1],96.7%
same,"viability, T/C",[2],97.8%
same,"viability, T/C",[3],102%
same,"viability, T/C",[4],90.5%
same,"viability, T/C",[5],97.5%
same,"viability, T/C",[6],5.25%
same,"viability, T/C",[7],83.6%
same,"viability, T/C",[8],86.1%
same,"viability, T/C",[9],91.9%
same,"viability, T/C",[10],94%
same,"viability, T/C",[11],98.1%
same,"viability, T/C",[12],2.68%
same,"viability, T/C",[13],104%
same,"viability, T/C",[14],94.9%
same,"viability, T/C",[15],96.5%
same,"viability, T/C",[16],98.8%
same,"viability, T/C",[17],102%
same,"viability, T/C",[18],1.38%
same,"viability, T/C",[19],91.5%
same,"viability, T/C",[20],97.1%
same,"viability, T/C",[21],94.1%
same,"viability, T/C",[22],92%
same,"viability, T/C",[23],99.3%
same,"viability, T/C",[24],2.82%
same,"viability, T/C","second compound 3.16 µM, first compound 0.0316 µM",90.6%
same,"viability, T/C","second compound 3.16 µM, first compound 0.1 µM",93.6%
same,"viability, T/C","second compound 3.16 µM, first compound 0.316 µM",97.8%
same,"viability, T/C","second compound 3.16 µM, first compound 1 µM",88.5%
same,"viability, T/C","second compound 3.16 µM, first compound 3.16 µM",86.6%
same,"viability, T/C","second compound 3.16 µM, first compound 10 µM",0.42%
same,"viability, T/C","second compound 10 µM, first compound 0.0316 µM",95.7%
same,"viability, T/C","second compound 10 µM, first compound 0.1 µM",103%
same,"viability, T/C","second compound 10 µM, first compound 0.316 µM",81.9%
same,"viability, T/C","second compound 10 µM, first compound 1 µM",91.3%
same,"viability, T/C","second compound 10 µM, first compound 3.16 µM",95%
same,"viability, T/C","second compound 10 µM, first compound 10 µM",1.21%
